Patent US10604490B2, “Processes for preparing ASK1 inhibitors” (Gilead Sciences, Inc., priority 2014, dated 2020)
In brackets after ≈: the same amount, converted by molar mass. Where two headings read alike, the source gives them in different places. Values belong to the compound of their own block, whether it stands above or below them.

Legend:
[1] = Hydrate screen: solubility in EtOH/water mixtures with different water activities; type: physicochemical; settings: thermodynamic from solid, slurry at room temperature
Procedure: A hydrate screen of Compound of Formula (D) was performed using a mixture of anhydrous forms of Compound of Formula (D) Form II and of Compound of Formula (D) Form I and EtOH/water solvent mixtures with different water activities (Table 1). Compound of Formula (D) Form II and Compound of Formula (D) Form I (about 20 to about 40 mg) was slurried in about 1 mL of EtOH/water or water. Samples were analyzed after about 1 day and after about 2 weeks of equilibration at room temperature. Pure anhydrous Compound of Formula (D) Form I was obtained after 1 day in mixtures with about 0.2 to about 0.4 water activity. However, after 2 weeks of equilibration a new form was obtained in EtOH/water with 0.4 water activity. This form was designated as Compound of Formula (D) Form III. Compound of Formula (D) hydrate Form I was obtained in solvents with about 0.5 to about 1.0 water activity after 1 day and after about 2 weeks.

[2] = slurry at room temperature
Procedure: (§1) A stable form screen of Compound of Formula (D) hydrate Form I was performed in an attempt to determine the stability of Compound of Formula (D) hydrate Form I in different organic solvents. […] Compound of Formula (D) hydrate Form I (about 50 to about 60 mg) was slurried in about 1 mL of chosen solvent. Solids were analyzed by XRPD after about 1 day and about 2 weeks of equilibration at room temperature.
as §1, with “in” for “in about”, “after” for “after about”, “and” for “and about”

[3] = DVS analysis (moisture uptake); type: physicochemical; settings: at 90% RH
Procedure: Compound of Formula (D) Form I was obtained after the isothermal hold of Compound of Formula (D) hydrate Form I at about 150° C. Compound of Formula (D) Form I was also obtained after KF analysis of Compound of Formula (D) Form II and Compound of Formula (D) Form I at about 180° C. Slurries of Compound of Formula (D) hydrate Form I in water miscible organic solvents also afforded Compound of Formula (D) Form I (MeCN, MeOH, EtOH, IPA, acetone, and THF). […] (FIG. 10). DSC thermogram afforded single endotherm with onset at about 252° C. (FIG. 11). […] No form change was observed after DVS.

Solubility ([1]; EtOH/water solvent mixture, aqueous with cosolvent or surfactant or cyclodextrin, EtOH/water, water activity 0.9 (water 0.825 mL, EtOH 0.175 mL)): 3930 µg/mL (≈ 15.1 mM) | Solubility ([1]; EtOH/water solvent mixture, organic solvent or mixture, EtOH/water, water activity 0.2 (water 0.031 mL, EtOH 0.969 mL)): 7270 µg/mL (≈ 27.9 mM) | Solubility ([1]; EtOH/water solvent mixture, organic solvent or mixture, EtOH/water, water activity 0.3 (water 0.066 mL, EtOH 0.934 mL)): 8060 µg/mL (≈ 31 mM) | Solubility ([1]; EtOH/water solvent mixture, organic solvent or mixture, EtOH/water, water activity 0.4 (water 0.077 mL, EtOH 0.923 mL)): 7860 µg/mL (≈ 30.2 mM) | Solubility ([1]; EtOH/water solvent mixture, organic solvent or mixture, EtOH/water, water activity 0.5 (water 0.097 mL, EtOH 0.903 mL)): 8160 µg/mL (≈ 31.4 mM) | Solubility ([1]; EtOH/water solvent mixture, organic solvent or mixture, EtOH/water, water activity 0.6 (water 0.149 mL, EtOH 0.851 mL)): 6590 µg/mL (≈ 25.3 mM) | Solubility ([1]; EtOH/water solvent mixture, organic solvent or mixture, EtOH/water, water activity 0.7 (water 0.263 mL, EtOH 0.737 mL)): 6880 µg/mL (≈ 26.4 mM) | Solubility ([1]; EtOH/water solvent mixture, organic solvent or mixture, EtOH/water, water activity 0.8 (water 0.481 mL, EtOH 0.519 mL)): 6560 µg/mL (≈ 25.2 mM) | Solubility ([1]; water, water activity 1.0 (water 1.0 mL, EtOH 0)): 3320 µg/mL (≈ 12.8 mM)
Structure (SMILES): Cc1cc(F)c(C(=O)O)cc1-n1cnc(C2CC2)c1 [5-(4-cyclopropyl-1H-imidazol-1-1-2-fluoro-4-methylbenzoic acid]

Solubility ([2]; solvent 2-MeTHF): 4480 µg/mL | Solubility ([2]; solvent Acetone): 1990 µg/mL | Solubility ([2]; solvent DCM): 190 µg/mL | Solubility ([2]; solvent EtOAc): 730 µg/mL | Solubility ([2]; solvent EtOH): 6180 µg/mL | Solubility ([2]; solvent IPA): 2900 µg/mL | Solubility ([2]; solvent IPAc): 450 µg/mL | Solubility ([2]; solvent MeCN): 400 µg/mL | Solubility ([2]; solvent MeOH): 20670 µg/mL | Solubility ([2]; solvent THF): 11790 µg/mL
Structure (SMILES): Cc1cc(F)c(C(=O)O)cc1-n1cnc(C2CC2)c1.O [Compound of Formula (D) Hydrate Form I]

moisture uptake (DVS; slightly hygroscopic) [3]: about 0.5%
Structure (SMILES): Cc1cc(F)c(C(=O)O)cc1-n1cnc(C2CC2)c1 [Compound of Formula (D) Form I]
